According to publication PMC5789083, “Mechanisms driving the antibacterial and antibiofilm properties of Hp1404 and its analogue peptides against multidrug-resistant Pseudomonas aeruginosa” (Scientific Reports, 2018):
≈ marks a conversion by molar mass, not a printed value. Read-outs that look alike come from different tables or passages of the source.

Experiments:
[1] = tested on: Pseudomonas aeruginosa and MRPA strains; assay: microbe, parasite or virus in culture; format: cell-based; conditions: broth micro-dilution, 37 °C, 18–24 h
Excerpt: Gram-negative (Pseudomonas aeruginosa ATCC 27853) bacterial strains were obtained from the ATCC (American Type Culture Collection; Manassas, VA, USA). Multidrug-resistant strains (Pseudomonas aeruginosa 138, 431, 434, 557, 559, 778, 1034, 1162, 3290, 3399, 3592, 3904, 4007, 4319, 4891, 5018, and 671973) were obtained from the Chonnam National University Hospital (Gwangju, South Korea).
We examined the activity of each peptide against both pseudomonas aeruginosa and multidrug-resistant strains. The minimal inhibitory concentrations (MICs) of peptides were determined using the broth micro-dilution assay as described previously. Briefly, bacterial strains were cultivated with shaking overnight at 37 °C. The next day, they were diluted to a density of 2 × 10^5 CFU/mL with growth medium. Peptides were serially diluted with 10 mM sodium phosphate buffer. 50 µL bacterial aliquots were mixed with an equal volume of peptide solution, and incubated at 37 °C for 18–24 h. Inhibition of bacterial growth was determined by measuring the absorbance at 600 nm using a Versa Max microplate reader (Molecular Devices, Sunnyvale, CA, USA). The test was performed in triplicate.

[2] = tested on: P. aeruginosa 1034 biofilm; assay: LIVE/DEAD BacLight (SYTO9/PI) staining of biofilms; format: cell-based, Pseudomonas aeruginosa; conditions: even at 400 µM; P. aeruginosa 1034, 24 h, 37 °C
Protocol: Visualization of the remaining bacteria in the biofilm was achieved using the LIVE/DEAD BacLight Bacterial Viability Kit (Molecular Probes, Eugene, OR, USA), and an IX71 inverted fluorescence microscope (Olympus, Tokyo, Japan) was used for observation[58],[59]. Briefly, bacterial suspensions (5 × 10^5 CFU/mL) were incubated with 0.5× MBIC or 1× MBIC of the peptides, for 24 h at 37 °C. Following incubation, biofilms were stained with pre-mixed dye (SYTO-9 and propidium iodide) for 30 min in the dark; images were obtained using the aforementioned microscope.

[3] = tested on: P. aeruginosa strains (biofilm formation); format: cell-based, Pseudomonas aeruginosa; conditions: 24 h, 37 °C, crystal violet OD595
Protocol: To evaluate the ability of bacterial strains to form biofilms either in the absence or presence of peptides, antibiotic-susceptible P. aeruginosa (ATCC 27853), and various strains of MDR P. aeruginosa were cultured in nutrient broth (NB). […]. The biofilms were fixed with 100% methanol for 15 min, stained with 0.1% crystal violet (CV) for 1 h, and rinsed three times with distilled water (dH2O). After the addition of 95% ethanol, biofilm mass was quantified by measuring OD at 595 nm using a Versa-Max microplate ELISA reader (Molecular Devices). Results were expressed as the percentage of biofilm formed with respect to the control. […] All experiments were performed at least in triplicate.

P. aeruginosa 1034 = format: in vivo; conditions: BALB/c mice, intradermal P. aeruginosa 1034
Protocol: BALB/c mice (6 weeks old) were used in this study. The mice were shaved and intradermally injected with 20 µl of P. aeruginosa (1 × 10^8 CFU/ml) in PBS.

mouse red blood cells = assay: Hemolytic activity; format: cell-based; conditions: at 12.5 M (so in the source); mouse RBCs, positive control
Protocol: The hemolytic activities of the peptides were determined as previously described. Fresh mouse red blood cells (RBCs) were washed and diluted to 8% with PBS. RBC suspension was added to 96-well plates (100 µL/well), mixed with an equal volume of serially diluted peptides, and incubated at 37 °C for 1 h with gentle shaking. The plate was centrifuged and the supernatant was transferred to a 96-well plate. The absorbance at 414 nm was measured with a Versa-Max ELISA reader (Molecular Devices). PBS and 0.1% Triton X-100 were used as negative and positive controls, respectively. The experiment was performed in triplicate. The hemolysis rate was calculated using the following formula[55]: % Hemolysis = [(Abs 414 nm in the peptide solution-Abs 414 nm in PBS)/(Abs 414 nm in 0.1% Triton X-100-Abs 414 nm in PBS)] × 100

HaCaT cells = assay: Cytotoxicity, MTT assay; format: cell-based, human; conditions: 3.13 µM, 24 h
Protocol: We used the MTT assay to evaluate the toxicity of the peptides toward human skin epithelial cells (HaCaT) as previously described. Briefly, HaCaT cells were seeded at a density of 2 × 10^4 cells per well in 96-well microtiter plates in Dulbecco’s modified Eagle’s medium (DMEM) containing 10% foetal bovine serum (FBS) at 37 °C under 5% CO2 atmosphere. The next day, peptides were added to each well at various final concentrations (higher concentration of 200 µM). After 24 h incubation, culture supernatants were removed. 0.5 mg/mL MTT was added to each well, and the plates were incubated for 4 h at 37 °C. The medium was replaced by dimethyl sulfoxide (DMSO) to dissolve the formazan crystals formed in the wells. The absorbance at 570 nm was measured using a Versa-Max microplate ELISA reader (Molecular Devices). The viability rate was calculated using the following formula: Cell viability (%) = (absorbance of treated sample)/(absorbance of control) × 100.

O=C(O)c1cn(C2CC2)c2cc(N3CCNCC3)c(F)cc2c1=O [Ciprofloxacin, ciprofloxacin, reference compound]
MIC ([1]; Pseudomonas aeruginosa, ATCC27853, P. aeruginosa ATCC 27853, 2 × 10^5 CFU/mL, A600, triplicate): 1.56 µM (≈ 0.517 µg/mL) | MIC ([1]; Pseudomonas aeruginosa, P. aeruginosa 138 (multidrug-resistant), triplicate): > 400 µM | MIC ([1]; Pseudomonas aeruginosa, P. aeruginosa 431 (multidrug-resistant), triplicate): > 400 µM | MIC ([1]; Pseudomonas aeruginosa, P. aeruginosa 434 (multidrug-resistant), triplicate): > 400 µM | MIC ([1]; Pseudomonas aeruginosa, P. aeruginosa 557 (multidrug-resistant), triplicate): > 400 µM | MIC ([1]; Pseudomonas aeruginosa, P. aeruginosa 559 (multidrug-resistant), triplicate): > 400 µM | MIC ([1]; Pseudomonas aeruginosa, P. aeruginosa 778 (multidrug-resistant), triplicate): > 400 µM | MIC ([1]; Pseudomonas aeruginosa, P. aeruginosa 1034 (multidrug-resistant), triplicate): > 400 µM | MIC ([1]; Pseudomonas aeruginosa, P. aeruginosa 1162 (multidrug-resistant), triplicate): > 400 µM | MIC ([1]; Pseudomonas aeruginosa, P. aeruginosa 3290 (multidrug-resistant), triplicate): > 400 µM | MIC ([1]; Pseudomonas aeruginosa, P. aeruginosa 3399 (multidrug-resistant), triplicate): > 400 µM | MIC ([1]; Pseudomonas aeruginosa, P. aeruginosa 3543 (multidrug-resistant), triplicate): 400 µM (≈ 133 µg/mL) | MIC ([1]; Pseudomonas aeruginosa, P. aeruginosa 3592 (multidrug-resistant), triplicate): > 400 µM | MIC ([1]; Pseudomonas aeruginosa, P. aeruginosa 3904 (multidrug-resistant), triplicate): 400 µM (≈ 133 µg/mL) | MIC ([1]; Pseudomonas aeruginosa, P. aeruginosa 4007 (multidrug-resistant), triplicate): > 400 µM | MIC ([1]; Pseudomonas aeruginosa, P. aeruginosa 4319 (multidrug-resistant), triplicate): > 400 µM | MIC ([1]; Pseudomonas aeruginosa, P. aeruginosa 4891 (multidrug-resistant), triplicate): > 400 µM | MIC ([1]; Pseudomonas aeruginosa, P. aeruginosa 5018 (multidrug-resistant), triplicate): > 400 µM | MIC ([1]; Pseudomonas aeruginosa, P. aeruginosa 671973 (multidrug-resistant), triplicate): 100 µM (≈ 33.1 µg/mL) | biofilm formation by the MRPA strain (live/dead staining) [2]: did not inhibit biofilm formation | MBIC ([3]; P. aeruginosa 434): >400 µM | MBIC ([3]; P. aeruginosa 559): >400 µM | MBIC ([3]; P. aeruginosa 778): >400 µM | MBIC ([3]; P. aeruginosa 1034): >400 µM | MBIC ([3]; P. aeruginosa 1162): >400 µM | MBIC ([3]; P. aeruginosa 3399): >400 µM | MBIC ([3]; P. aeruginosa 3543): >400 µM | MBIC ([3]; P. aeruginosa 4007): >400 µM | killing of bacteria in infected skin (P. aeruginosa 1034; day 7): did not kill the bacteria | decrease in number of colonies (P. aeruginosa 1034; until 4 days): about 60%

CC[C@H](C)[C@H](NC(=O)CN)C(=O)NCC(=O)N[C@@H](C)C(=O)N[C@H](C(=O)N[C@@H](CC(C)C)C(=O)N[C@@H](CCCCN)C(=O)N[C@H](C(=O)N[C@@H](CC(C)C)C(=O)N[C@H](C(=O)N[C@H](C(=O)NCC(=O)N[C@@H](CC(C)C)C(=O)N1CCC[C@H]1C(=O)N[C@@H](C)C(=O)N[C@@H](CC(C)C)C(=O)N[C@H](C(=O)N[C@@H](CO)C(=O)N[C@@H](Cc1c[nH]c2ccccc12)C(=O)N[C@H](C(=O)N[C@@H](CCCCN)C(=O)N[C@@H](CCCNC(=N)N)C(=O)N[C@@H](CCCCN)C(=O)N[C@@H](CCCNC(=N)N)C(=O)N[C@@H](CCC(N)=O)C(=O)N[C@@H](CCC(N)=O)C(N)=O)[C@@H](C)CC)[C@@H](C)CC)[C@@H](C)O)[C@@H](C)O)C(C)C)C(C)C [Melittin, reference compound]
MIC ([1]; P. aeruginosa 138 (multidrug-resistant), triplicate): 3.13 µM (≈ 8.91 µg/mL) | MIC ([1]; P. aeruginosa 431 (multidrug-resistant), triplicate): 3.13 µM (≈ 8.91 µg/mL) | MIC ([1]; P. aeruginosa 434 (multidrug-resistant), triplicate): 3.13 µM (≈ 8.91 µg/mL) | MIC ([1]; P. aeruginosa 557 (multidrug-resistant), triplicate): 1.56 µM (≈ 4.44 µg/mL) | MIC ([1]; P. aeruginosa 559 (multidrug-resistant), triplicate): 3.13 µM (≈ 8.91 µg/mL) | MIC ([1]; P. aeruginosa 778 (multidrug-resistant), triplicate): 3.13 µM (≈ 8.91 µg/mL) | MIC ([1]; P. aeruginosa 1034 (multidrug-resistant), triplicate): 1.56 µM (≈ 4.44 µg/mL) | MIC ([1]; P. aeruginosa 1162 (multidrug-resistant), triplicate): 3.13 µM (≈ 8.91 µg/mL) | MIC ([1]; P. aeruginosa 3290 (multidrug-resistant), triplicate): 3.13 µM (≈ 8.91 µg/mL) | MIC ([1]; P. aeruginosa 3399 (multidrug-resistant), triplicate): 3.13 µM (≈ 8.91 µg/mL) | MIC ([1]; P. aeruginosa 3543 (multidrug-resistant), triplicate): 3.13 µM (≈ 8.91 µg/mL) | MIC ([1]; P. aeruginosa 3592 (multidrug-resistant), triplicate): 3.13 µM (≈ 8.91 µg/mL) | MIC ([1]; P. aeruginosa 3904 (multidrug-resistant), triplicate): 3.13 µM (≈ 8.91 µg/mL) | MIC ([1]; P. aeruginosa 4007 (multidrug-resistant), triplicate): 3.13 µM (≈ 8.91 µg/mL) | MIC ([1]; P. aeruginosa 4319 (multidrug-resistant), triplicate): 3.13 µM (≈ 8.91 µg/mL) | MIC ([1]; P. aeruginosa 4891 (multidrug-resistant), triplicate): 1.56 µM (≈ 4.44 µg/mL) | MIC ([1]; P. aeruginosa 5018 (multidrug-resistant), triplicate): 3.13 µM (≈ 8.91 µg/mL) | MIC ([1]; P. aeruginosa 671973 (multidrug-resistant), triplicate): 1.56 µM (≈ 4.44 µg/mL) | MIC ([1]; P. aeruginosa ATCC 27853, 2 × 10^5 CFU/mL, A600, triplicate): 3.13 µM (≈ 8.91 µg/mL) | hemolysis (mouse red blood cells): complete hemolysis | survival of HaCaT cells (HaCaT cells): no living cells were detected
